Measurements as given in US8574563B2 (Bristol-Myers Squibb Company, priority 2006, dated 2013).

Test system: HCV 1b-377-neo replicon cells
Experiment: HCV replicon assay, HCV 1b-377-neo replicon cells (1b FRET)
Type: cell-based, Hepatitis C virus genotype 1b
Conditions: Hepatitis C virus, HCV 1b-377-neo replicon cells; HCV 1b genotype; read-out: EC50 range against HCV 1b (Table 2, Range)
In short: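 Compounds tested in HCV genotype 1b-377-neo replicon cells with a FRET read-out. Cells resistant to a reference NS5A inhibitor through a Y2065H NS5A mutation were run alongside wild-type cells.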

Structure (SMILES) | EC50
CN(C)CC(=O)N[C@@H](C(=O)N1CCC[C@H]1c1ncc(-c2ccc(-c3ccc(-c4cnc([C@@H]5CCCN5C(=O)[C@H](NC(=O)CN(C)C)c5ccccc5)[nH]4)cc3)cc2)[nH]1)c1ccccc1 [Example 25-5, N,N′-(4,4′-biphenyldiylbis(1H-imidazole-5,2-diyl(2S)-2,1-pyrrolidinediyl((1R)-2-oxo-1-phenyl-2,1-ethanediyl)))bis(2-(dimethylamino)acetamide)] | 0.001 to 0.999 nM
O=C(N[C@@H](C(=O)N1CCC[C@H]1c1ncc(-c2ccc(-c3ccc(-c4cnc([C@@H]5CCCN5C(=O)[C@H](NC(=O)N5CCOCC5)c5ccccc5)[nH]4)cc3)cc2)[nH]1)c1ccccc1)N1CCOCC1 [Example 25-6, N,N′-(4,4′-biphenyldiylbis(1H-imidazole-5,2-diyl(2S)-2,1-pyrrolidinediyl((1R)-2-oxo-1-phenyl-2,1-ethanediyl)))di(4-morpholinecarboxamide)] | 1 to 99 nM
CN1CCN(C(=O)N[C@@H](C(=O)N2CCC[C@H]2c2ncc(-c3ccc(-c4ccc(-c5cnc([C@@H]6CCCN6C(=O)[C@H](NC(=O)N6CCN(C)CC6)c6ccccc6)[nH]5)cc4)cc3)[nH]2)c2ccccc2)CC1 [Example 25-7, N,N′-(4,4′-biphenyldiylbis(1H-imidazole-5,2-diyl(2S)-2,1-pyrrolidinediyl((1R)-2-oxo-1-phenyl-2,1-ethanediyl)))bis(4-methyl-1-piperazinecarboxamide)] | 1 to 99 nM
O=C(Nc1cccnc1)N[C@@H](C(=O)N1CCC[C@H]1c1ncc(-c2ccc(-c3ccc(-c4cnc([C@@H]5CCCN5C(=O)[C@H](NC(=O)Nc5cccnc5)c5ccccc5)[nH]4)cc3)cc2)[nH]1)c1ccccc1 [Example 25-8, N,N″-(4,4′-biphenyldiylbis(1H-imidazole-5,2-diyl(2S)-2,1-pyrrolidinediyl((1R)-2-oxo-1-phenyl-2,1-ethanediyl)))bis(3-(3-pyridinyl)urea)] | 0.001 to 0.999 nM
COC(=O)N[C@@H](C(=O)N1CCC[C@H]1c1ncc(-c2ccc(-c3ccc(-c4cnc([C@@H]5CCCN5C(=O)[C@H](NC(=O)OC)C(C)C)[nH]4)cc3)cc2)[nH]1)C(C)C [Example 26, methyl ((1R)-1-(((2S)-2-(5-(4′-(2-((2S)-1-((2R)-2-((methoxycarbonyl)amino)-3-methylbutanoyl)-2-pyrrolidinyl)-1H-imidazol-5-yl)-4-biphenylyl)-1H-imidazol-2-yl)-1-pyrrolidinyl)carbonyl)-2-methylpropyl)carbamate] | 1 to 99 nM
CC(=O)N[C@@H](C(=O)N1CCC[C@H]1c1ncc(-c2ccc(-c3ccc(-c4cnc([C@@H]5CCCN5C(=O)[C@H](NC(C)=O)C(C)C)[nH]4)cc3)cc2)[nH]1)C(C)C [Example 27, N-((1R)-1-(((2S)-2-(5-(4′-(2-((2S)-1-((2R)-2-acetamido-3-methylbutanoyl)-2-pyrrolidinyl)-1H-imidazol-5-yl)-4-biphenylyl)-1H-imidazol-2-yl)-1-pyrrolidinyl)carbonyl)-2-methylpropyl)acetamide] | 1 to 99 nM
COC(=O)N[C@@H](C(=O)N1CCC[C@H]1c1ncc(-c2ccc(-c3ccc(-c4cnc([C@@H]5CCCN5C(=O)Cc5ccccc5)[nH]4)cc3)cc2)[nH]1)c1ccccc1 [Example 28, methyl ((1R)-2-oxo-1-phenyl-2-((2S)-2-(5-(4′-(2-((2S)-1-(phenylacetyl)-2-pyrrolidinyl)-1H-imidazol-5-yl)-4-biphenylyl)-1H-imidazol-2-yl)-1-pyrrolidinyl)ethyl)carbamate] | 1 to 99 nM
CN(C)[C@@H](C(=O)N1CCC[C@H]1c1ncc(-c2ccc(-c3ccc(-c4cnc([C@@H]5CCCN5C(=O)[C@@H](c5ccccc5)N5CCCCC5)[nH]4)cc3)cc2)[nH]1)c1ccccc1 [Example 28-1, (1R)—N,N-dimethyl-2-oxo-1-phenyl-2-((2S)-2-(5-(4′-(2-((2S)-1-((2R)-2-phenyl-2-(1-piperidinyl)acetyl)-2-pyrrolidinyl)-1H-imidazol-5-yl)-4-biphenylyl)-1H-imidazol-2-yl)-1-pyrrolidinyl)ethanamine] | 0.001 to 0.999 nM
O=C([C@H]1CCCO1)N1CCC[C@H]1c1ncc(-c2ccc(-c3ccc(-c4cnc([C@@H]5CCCN5C(=O)[C@@H](c5ccccc5)N5CCCCC5)[nH]4)cc3)cc2)[nH]1 [Example 28-2, 1-((1R)-2-oxo-1-phenyl-2-((2S)-2-(5-(4′-(2-((2S)-1-((2R)-tetrahydro-2-furanylcarbonyl)-2-pyrrolidinyl)-1H-imidazol-5-yl)-4-biphenylyl)-1H-imidazol-2-yl)-1-pyrrolidinyl)ethyl)piperidine] | 0.001 to 0.999 nM
COC(=O)N[C@@H](C(=O)N1CCC[C@H]1c1ncc(-c2ccc(-c3ccc(-c4cnc([C@@H]5CCCN5C(=O)[C@@H](c5ccccc5)N5CCCCC5)[nH]4)cc3)cc2)[nH]1)c1ccccc1Cl [Example 28-3, methyl ((1R)-1-(2-chlorophenyl)-2-oxo-2-((2S)-2-(5-(4′-(2-((2S)-1-((2R)-2-phenyl-2-(1-piperidinyl)acetyl)-2-pyrrolidinyl)-1H-imidazol-5-yl)-4-biphenylyl)-1H-imidazol-2-yl)-1-pyrrolidinyl)ethyl)carbamate] | 0.001 to 0.999 nM
CN(C)[C@@H](C(=O)N1CCC[C@H]1c1ncc(-c2ccc(-c3ccc(-c4cnc([C@@H]5CCCN5C(=O)[C@@H](c5ccccc5)N5CCCCC5)[nH]4)cc3)cc2)[nH]1)c1ccccc1Cl [Example 28-4, (1R)-1-(2-chlorophenyl)-N,N-dimethyl-2-oxo-2-((2S)-2-(5-(4′-(2-((2S)-1-((2R)-2-phenyl-2-(1-piperidinyl)acetyl)-2-pyrrolidinyl)-1H-imidazol-5-yl)-4-biphenylyl)-1H-imidazol-2-yl)-1-pyrrolidinyl)ethanamine] | 0.001 to 0.999 nM
CN(C)[C@@H](C(=O)N1CCC[C@H]1c1ncc(-c2ccc(-c3ccc(-c4cnc([C@@H]5CCCN5C(=O)[C@@H](c5ccccc5)N5CCCCC5)[nH]4)cc3)cc2)[nH]1)c1ccccc1F [Example 28-5, (1R)-1-(2-fluorophenyl)-N,N-dimethyl-2-oxo-2-((2S)-2-(5-(4′-(2-((2S)-1-((2R)-2-phenyl-2-(1-piperidinyl)acetyl)-2-pyrrolidinyl)-1H-imidazol-5-yl)-4-biphenylyl)-1H-imidazol-2-yl)-1-pyrrolidinyl)ethanamine] | 0.001 to 0.999 nM
COC(=O)N[C@@H](C(=O)N1CCC[C@H]1c1ncc(-c2ccc(-c3ccc(-c4cnc([C@@H]5CCCN5C(=O)N5CCN(C)CC5)[nH]4)cc3)cc2)[nH]1)c1ccccc1 [Example 29, methyl ((1R)-2-((2S)-2-(5-(4′-(2-((2S)-1-((4-methyl-1-piperazinyl)carbonyl)-2-pyrrolidinyl)-1H-imidazol-5-yl)-4-biphenylyl)-1H-imidazol-2-yl)-1-pyrrolidinyl)-2-oxo-1-phenylethyl)carbamate] | 0.001 to 0.999 nM
COC(=O)N[C@@H](C(=O)N1CCC[C@H]1c1ncc(-c2ccc(-c3ccc(-c4cnc([C@@H]5CCCN5C(=O)CN)[nH]4)cc3)cc2)[nH]1)c1ccccc1 [Example 30, methyl ((1R)-2-((2S)-2-(5-(4′-(2-((2S)-1-glycyl-2-pyrrolidinyl)-1H-imidazol-5-yl)-4-biphenylyl)-1H-imidazol-2-yl)-1-pyrrolidinyl)-2-oxo-1-phenylethyl)carbamate] | 1 to 99 nM
COC(=O)N[C@@H](C(=O)N1CCC[C@H]1c1ncc(-c2ccc(-c3ccc(-c4cnc([C@@H]5CCCN5C(C)=O)[nH]4)cc3)cc2)[nH]1)c1ccccc1 [Example 31, methyl ((1R)-2-((2S)-2-(5-(4′-(2-((2S)-1-acetyl-2-pyrrolidinyl)-1H-imidazol-5-yl)-4-biphenylyl)-1H-imidazol-2-yl)-1-pyrrolidinyl)-2-oxo-1-phenylethyl)carbamate] | 0.001 to 0.999 nM
CCC(=O)N1CCC[C@H]1c1ncc(-c2ccc(-c3ccc(-c4cnc([C@@H]5CCCN5C(=O)[C@H](NC(=O)OC)c5ccccc5)[nH]4)cc3)cc2)[nH]1 [Example 32, methyl ((1R)-2-oxo-1-phenyl-2-((2S)-2-(5-(4′-(2-((2S)-1-propionyl-2-pyrrolidinyl)-1H-imidazol-5-yl)-4-biphenylyl)-1H-imidazol-2-yl)-1-pyrrolidinyl)ethyl)carbamate] | 1 to 99 nM
COC(=O)N[C@@H](C(=O)N1CCC[C@H]1c1ncc(-c2ccc(-c3ccc(-c4cnc([C@@H]5CCCN5C(=O)C5CC5)[nH]4)cc3)cc2)[nH]1)c1ccccc1 [Example 33, methyl ((1R)-2-((2S)-2-(5-(4′-(2-((2S)-1-(cyclopropylcarbonyl)-2-pyrrolidinyl)-1H-imidazol-5-yl)-4-biphenylyl)-1H-imidazol-2-yl)-1-pyrrolidinyl)-2-oxo-1-phenylethyl)carbamate] | 0.001 to 0.999 nM
COC(=O)N[C@@H](C(=O)N1CCC[C@H]1c1ncc(-c2ccc(-c3ccc(-c4cnc([C@@H]5CCCN5C(=O)CC5CC5)[nH]4)cc3)cc2)[nH]1)c1ccccc1 [Example 34, methyl ((1R)-2-((2S)-2-(5-(4′-(2-((2S)-1-(cyclopropylacetyl)-2-pyrrolidinyl)-1H-imidazol-5-yl)-4-biphenylyl)-1H-imidazol-2-yl)-1-pyrrolidinyl)-2-oxo-1-phenylethyl)carbamate] | 0.001 to 0.999 nM
COC(=O)N[C@@H](C(=O)N1CCC[C@H]1c1ncc(-c2ccc(-c3ccc(-c4cnc([C@@H]5CCCN5C(=O)[C@@H](C)O)[nH]4)cc3)cc2)[nH]1)c1ccccc1 [Example 35, methyl ((1R)-2-((2S)-2-(5-(4′-(2-((2S)-1-((2R)-2-hydroxypropanoyl)-2-pyrrolidinyl)-1H-imidazol-5-yl)-4-biphenylyl)-1H-imidazol-2-yl)-1-pyrrolidinyl)-2-oxo-1-phenylethyl)carbamate] | 0.001 to 0.999 nM
COC(=O)N[C@@H](C(=O)N1CCC[C@H]1c1ncc(-c2ccc(-c3ccc(-c4cnc([C@@H]5CCCN5C(=O)[C@H]5CCCO5)[nH]4)cc3)cc2)[nH]1)c1ccccc1 [Example 36, methyl ((1R)-2-oxo-1-phenyl-2-((2S)-2-(5-(4′-(2-((2S)-1-((2R)-tetrahydro-2-furanylcarbonyl)-2-pyrrolidinyl)-1H-imidazol-5-yl)-4-biphenylyl)-1H-imidazol-2-yl)-1-pyrrolidinyl)ethyl)carbamate] | 0.001 to 0.999 nM
